“And” between values parts separate entries of the source, which are not always exact repeats. Identical values can stand only once. The source made the active and inactive calls.
What was measured:
[1] = biological target: T1, Coagulation factor XII (Homo sapiens, UniProt P00748); assay: Factor XIIa Dose Response Confirmation from Single Well HTS. [Related pubchem assays (depositor defined):AID701]; format: functional
T1 sequence (P00748 whole entry): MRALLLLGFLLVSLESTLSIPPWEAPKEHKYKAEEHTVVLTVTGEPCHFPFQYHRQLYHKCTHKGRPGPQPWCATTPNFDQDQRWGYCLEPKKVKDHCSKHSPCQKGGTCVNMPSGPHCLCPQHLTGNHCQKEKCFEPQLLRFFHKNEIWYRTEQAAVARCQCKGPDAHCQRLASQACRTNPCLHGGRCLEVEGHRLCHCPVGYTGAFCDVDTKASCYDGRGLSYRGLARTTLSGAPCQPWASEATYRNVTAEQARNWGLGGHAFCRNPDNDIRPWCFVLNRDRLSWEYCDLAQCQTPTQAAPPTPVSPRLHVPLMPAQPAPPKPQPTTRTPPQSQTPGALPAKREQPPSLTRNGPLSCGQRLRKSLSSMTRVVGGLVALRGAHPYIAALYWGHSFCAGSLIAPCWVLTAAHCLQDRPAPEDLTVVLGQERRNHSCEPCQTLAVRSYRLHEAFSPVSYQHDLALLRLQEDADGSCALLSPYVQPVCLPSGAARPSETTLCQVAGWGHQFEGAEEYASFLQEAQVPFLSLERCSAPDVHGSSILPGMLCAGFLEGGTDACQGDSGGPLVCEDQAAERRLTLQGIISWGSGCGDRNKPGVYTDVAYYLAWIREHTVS

[2] = biological target: Prothrombin (Homo sapiens, UniProt P00734); assay: Thrombin 1536 HTS Dose Response Confirmation. [Related pubchem assays: 1046 (Thrombin 1536 HTS; hits were confirmed in this assay)]; format: functional
[3] = Luminescence Cell-Based Dose Retest to Confirm Inhibitors of Cancer Stem Cells. [Related pubchem assays (depositor defined):AID2717, AID2721]; format: functional; settings: Homo sapiens
[4] = system: T-cell; assay: inhibitors of CD8+ T cell–vesicle binding, dose response, mouse 2C CD8+ T cells, flow cytometry (AID 485284); format: functional
[5] = biological target: T2, Alkaline phosphatase, tissue-nonspecific isozyme (Homo sapiens, UniProt P05186); assay: human TNAP enzyme inhibitors, SAR follow-up, biochemical, luminescent, dose response (AID 1056)
T2 sequence (P05186 whole entry): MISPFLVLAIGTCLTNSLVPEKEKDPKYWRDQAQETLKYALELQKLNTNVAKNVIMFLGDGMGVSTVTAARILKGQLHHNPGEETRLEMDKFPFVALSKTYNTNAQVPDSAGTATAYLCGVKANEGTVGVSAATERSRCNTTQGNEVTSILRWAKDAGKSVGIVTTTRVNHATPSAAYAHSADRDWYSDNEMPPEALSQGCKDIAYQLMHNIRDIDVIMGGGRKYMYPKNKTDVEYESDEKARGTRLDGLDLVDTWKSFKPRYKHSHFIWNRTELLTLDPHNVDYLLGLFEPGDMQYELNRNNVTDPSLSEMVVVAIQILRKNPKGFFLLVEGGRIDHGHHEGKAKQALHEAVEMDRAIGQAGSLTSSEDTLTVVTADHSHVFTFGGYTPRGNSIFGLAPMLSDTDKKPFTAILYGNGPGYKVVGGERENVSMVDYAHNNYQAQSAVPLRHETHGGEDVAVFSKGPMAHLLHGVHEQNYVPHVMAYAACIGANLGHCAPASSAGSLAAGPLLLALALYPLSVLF

[6] = biological target: Glyceraldehyde-3-phosphate dehydrogenase (Homo sapiens, UniProt P04406)
[7] = biological target: T3, Protein RecA (Mycobacterium tuberculosis, UniProt P9WHJ3); assay: Fluorescence Cell-Free Homogeneous Dose Retest to Identify Inhibitors of RecA-Intein Splicing Activity. [Related pubchem assays (depositor defined):AID2097, AID2223, AID489010, AID492950]; format: functional
T3 sequence (P9WHJ3 whole entry): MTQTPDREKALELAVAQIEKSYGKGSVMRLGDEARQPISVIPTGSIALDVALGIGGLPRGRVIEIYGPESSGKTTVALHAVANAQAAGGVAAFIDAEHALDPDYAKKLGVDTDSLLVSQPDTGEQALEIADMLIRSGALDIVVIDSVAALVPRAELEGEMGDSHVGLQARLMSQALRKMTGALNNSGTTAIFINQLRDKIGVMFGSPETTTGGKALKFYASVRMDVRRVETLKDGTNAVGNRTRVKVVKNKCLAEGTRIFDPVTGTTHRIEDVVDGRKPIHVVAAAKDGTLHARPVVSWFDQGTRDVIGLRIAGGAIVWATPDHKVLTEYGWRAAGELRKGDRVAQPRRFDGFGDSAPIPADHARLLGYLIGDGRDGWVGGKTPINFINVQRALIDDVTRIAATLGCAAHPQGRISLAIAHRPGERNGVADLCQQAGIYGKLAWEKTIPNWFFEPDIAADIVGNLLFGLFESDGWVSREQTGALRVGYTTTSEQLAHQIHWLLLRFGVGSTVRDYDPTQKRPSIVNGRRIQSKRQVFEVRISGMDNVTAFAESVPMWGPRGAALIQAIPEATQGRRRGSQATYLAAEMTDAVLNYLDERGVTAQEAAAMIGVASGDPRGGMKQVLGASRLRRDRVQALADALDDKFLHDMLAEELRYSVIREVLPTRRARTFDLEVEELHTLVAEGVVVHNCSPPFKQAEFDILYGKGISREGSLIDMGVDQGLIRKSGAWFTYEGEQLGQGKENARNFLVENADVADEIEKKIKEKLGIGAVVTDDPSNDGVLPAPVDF

[8] = cytotoxicity in HEK-293T cells, dose response, cytotoxicity control for TCR NF-kB inhibitor project, luminescence, T-cell screen hits (AID 489026); format: functional, cell-based;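 also: cells exposed to compound about 14 hours before the viability readout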
[9] = Intein inhibitors as potential Tuberculosis drugs, a cytotoxicity screen. [Related pubchem assays (depositor defined):AID2221, AID2223, AID434968, AID435010, AID449749, AID449750, AID489010]; format: functional
[10] = biological target: T4, Replicative DNA helicase DnaB (Mycobacterium tuberculosis, UniProt P9WMR3); assay: DnaB intein splicing inhibitors, dose response, biochemical, cell-free fluorescence (AID 449749); format: functional
T4 sequence (P9WMR3 whole entry): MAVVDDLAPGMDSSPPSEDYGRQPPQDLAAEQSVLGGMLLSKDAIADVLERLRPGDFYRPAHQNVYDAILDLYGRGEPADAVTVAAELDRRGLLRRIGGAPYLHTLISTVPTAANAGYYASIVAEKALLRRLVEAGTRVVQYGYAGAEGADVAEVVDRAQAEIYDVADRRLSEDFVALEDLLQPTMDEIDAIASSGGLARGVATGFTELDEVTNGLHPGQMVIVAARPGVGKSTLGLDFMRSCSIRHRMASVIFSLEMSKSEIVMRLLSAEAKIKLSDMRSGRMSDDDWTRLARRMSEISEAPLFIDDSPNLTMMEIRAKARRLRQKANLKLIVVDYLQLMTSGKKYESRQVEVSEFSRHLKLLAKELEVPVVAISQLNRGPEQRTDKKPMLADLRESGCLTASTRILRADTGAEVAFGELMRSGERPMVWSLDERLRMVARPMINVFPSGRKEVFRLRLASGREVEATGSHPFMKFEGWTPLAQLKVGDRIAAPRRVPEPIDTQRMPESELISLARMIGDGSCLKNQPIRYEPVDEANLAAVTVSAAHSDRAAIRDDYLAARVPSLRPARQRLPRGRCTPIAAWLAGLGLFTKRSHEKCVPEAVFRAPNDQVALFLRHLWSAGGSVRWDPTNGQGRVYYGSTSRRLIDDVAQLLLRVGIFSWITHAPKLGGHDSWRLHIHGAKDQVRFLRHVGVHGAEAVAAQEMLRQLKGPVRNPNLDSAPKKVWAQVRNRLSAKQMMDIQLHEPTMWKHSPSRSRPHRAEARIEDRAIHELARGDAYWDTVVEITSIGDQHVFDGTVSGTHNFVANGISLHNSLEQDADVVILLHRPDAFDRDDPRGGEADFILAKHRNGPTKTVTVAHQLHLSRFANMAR

[11] = biological target: T5, Type-1 angiotensin II receptor (Homo sapiens, UniProt P30556); assay: AT1 receptor agonists, dose response, selectivity assay for APJ receptor agonist project, cell-based, uHTS hits (AID 488865); format: functional;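 also: beta-arrestin recruitment to AT1 measured by enzyme fragment complementation luminescence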
T5 sequence (P30556 whole entry): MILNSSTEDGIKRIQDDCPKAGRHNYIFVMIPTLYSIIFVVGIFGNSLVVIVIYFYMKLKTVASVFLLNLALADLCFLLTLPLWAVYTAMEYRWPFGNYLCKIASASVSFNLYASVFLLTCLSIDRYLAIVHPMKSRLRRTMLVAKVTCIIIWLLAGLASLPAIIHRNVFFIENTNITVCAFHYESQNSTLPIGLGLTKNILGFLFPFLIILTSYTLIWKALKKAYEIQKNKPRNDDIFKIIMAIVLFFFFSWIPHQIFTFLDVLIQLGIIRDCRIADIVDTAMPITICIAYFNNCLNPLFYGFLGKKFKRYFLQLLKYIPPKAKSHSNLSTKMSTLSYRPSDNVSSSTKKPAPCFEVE

[12] = biological target: X-box-binding protein 1 (Homo sapiens, UniProt P17861); format: functional, Cricetulus griseus;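 also: confirmatory dose-response counter-screen serving a CHOP assay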
[13] = biological target: DNA damage-inducible transcript 3 protein (Mus musculus, UniProt P35639); format: functional, Cricetulus griseus
[14] = biological target: T6, Heat shock factor protein 1 (Mus musculus, UniProt P38532); assay: inhibition of MG132-induced HSE-luciferase signal, confirmation, cell-based, NIH3T3, luminescence, dose retest (AID 2382); format: functional;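 also: NIH3T3 fibroblasts with HSF1-driven luciferase reporter stressed by proteasome inhibitor MG132; luminescence from HSF1-driven luciferase expression after 8 hours of MG132 stress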
T6 sequence (P38532 whole entry): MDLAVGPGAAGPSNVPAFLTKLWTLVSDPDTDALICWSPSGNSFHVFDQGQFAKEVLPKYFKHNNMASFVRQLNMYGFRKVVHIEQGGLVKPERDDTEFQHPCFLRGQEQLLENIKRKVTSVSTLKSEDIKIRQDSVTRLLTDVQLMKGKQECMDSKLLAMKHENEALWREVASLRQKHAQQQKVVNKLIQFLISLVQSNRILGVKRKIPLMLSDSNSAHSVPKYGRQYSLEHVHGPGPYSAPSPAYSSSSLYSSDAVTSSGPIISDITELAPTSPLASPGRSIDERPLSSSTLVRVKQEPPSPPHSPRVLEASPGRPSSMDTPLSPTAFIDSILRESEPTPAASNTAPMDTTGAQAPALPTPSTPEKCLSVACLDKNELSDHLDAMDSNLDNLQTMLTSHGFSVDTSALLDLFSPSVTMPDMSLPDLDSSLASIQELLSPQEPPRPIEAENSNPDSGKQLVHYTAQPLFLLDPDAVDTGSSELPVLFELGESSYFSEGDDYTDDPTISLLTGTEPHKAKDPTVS

[15] = Vero E6 cell cytotoxicity, dose response, cytotoxicity control for non-replicating M. tuberculosis project, secondary assay (AID 492998); format: functional, VeroE6; settings: Vero C1008
[16] = biological target: Beta-galactosidase (Escherichia coli, UniProt Q8VNN2); assay: beta-galactosidase enzyme inhibitors and activators, dose response, artefact control for CCR6 antagonist project, biochemical, E. coli enzyme, set 3 (AID 504712); format: functional
[17] = biological target: Sphingosine 1-phosphate receptor 1 (Homo sapiens, UniProt P21453); format: functional;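 also: Tango beta-arrestin reporter U2OS cells stimulated with S1P near its EC80; inhibitor potency meaning antagonism of receptor activation by the natural agonist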
[18] = growth suppression of beta-catenin-knockout colon cells, dose response, cell-based, HCT116, human colon tumor (AID 1045); format: functional;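 also: HCT116 colon tumor cells with beta catenin knocked out; cells exposed to compound for 60 hours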
[19] = system: HEK293; assay: inhibitors of LMP1-driven NF-kB reporter, dose response, cell-based, HEK293, luciferase, cherry-pick (AID 588343); format: functional; settings: Homo sapiens
[20] = biological target: T7, Sphingosine 1-phosphate receptor 4 (Homo sapiens, UniProt O95977); assay: Fluorescence dose response cell-based high throughput screening assay for antagonists of the Sphingosine 1-Phosphate Receptor 4 (S1P4). [Related pubchem assays: 1524 (Confirmation in triplicates.), 1510 (Primary screen.)]; format: functional
T7 sequence (O95977 whole entry): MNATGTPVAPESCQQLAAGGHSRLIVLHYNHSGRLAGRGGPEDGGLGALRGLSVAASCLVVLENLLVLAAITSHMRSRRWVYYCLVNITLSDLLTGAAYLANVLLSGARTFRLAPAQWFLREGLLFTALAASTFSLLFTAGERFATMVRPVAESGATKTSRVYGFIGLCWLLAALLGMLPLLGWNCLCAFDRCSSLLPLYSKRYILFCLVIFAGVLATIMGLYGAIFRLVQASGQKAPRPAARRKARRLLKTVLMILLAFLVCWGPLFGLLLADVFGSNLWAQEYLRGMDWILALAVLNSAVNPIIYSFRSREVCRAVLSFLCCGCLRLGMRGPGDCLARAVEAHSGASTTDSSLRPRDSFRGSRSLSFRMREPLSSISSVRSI

[21] = cells; format: functional
[22] = growth suppression of PTEN-null colon cells, dose response, cell-based, HCT116 PTEN knockout (AID 1047); format: functional;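 also: HCT116 colon tumor cells with PTEN knocked out; cells exposed to compound for 60 hours before readout; potency for loss of cell viability measured by luminescence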
[23] = THP-1 cell cytotoxicity, dose response, cytotoxicity control for non-replicating M. tuberculosis project (AID 489025); format: functional
[24] = biological target: T7, Sphingosine 1-phosphate receptor 4; assay: Late-stage fluorescence dose response cell-based assay to identify agonists of the Sphingosine 1-Phosphate Receptor 4 (S1P4): purchased compounds EC50. [Related pubchem assays (depositor defined):AID1509, AID1523, AID1563, AID1686, AID1701, AID1801]; format: functional

Sequence of Glyceraldehyde-3-phosphate dehydrogenase (P04406 whole entry): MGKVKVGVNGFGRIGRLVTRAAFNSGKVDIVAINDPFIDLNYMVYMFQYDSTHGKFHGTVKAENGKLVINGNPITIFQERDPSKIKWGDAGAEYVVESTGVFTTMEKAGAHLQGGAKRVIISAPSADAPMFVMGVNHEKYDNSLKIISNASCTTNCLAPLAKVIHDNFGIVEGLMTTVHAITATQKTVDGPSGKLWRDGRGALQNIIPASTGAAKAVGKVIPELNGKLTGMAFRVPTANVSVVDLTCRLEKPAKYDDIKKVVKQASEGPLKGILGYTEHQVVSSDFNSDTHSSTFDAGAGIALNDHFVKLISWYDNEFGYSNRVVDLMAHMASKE
Sequence of Beta-galactosidase (Q8VNN2 whole entry): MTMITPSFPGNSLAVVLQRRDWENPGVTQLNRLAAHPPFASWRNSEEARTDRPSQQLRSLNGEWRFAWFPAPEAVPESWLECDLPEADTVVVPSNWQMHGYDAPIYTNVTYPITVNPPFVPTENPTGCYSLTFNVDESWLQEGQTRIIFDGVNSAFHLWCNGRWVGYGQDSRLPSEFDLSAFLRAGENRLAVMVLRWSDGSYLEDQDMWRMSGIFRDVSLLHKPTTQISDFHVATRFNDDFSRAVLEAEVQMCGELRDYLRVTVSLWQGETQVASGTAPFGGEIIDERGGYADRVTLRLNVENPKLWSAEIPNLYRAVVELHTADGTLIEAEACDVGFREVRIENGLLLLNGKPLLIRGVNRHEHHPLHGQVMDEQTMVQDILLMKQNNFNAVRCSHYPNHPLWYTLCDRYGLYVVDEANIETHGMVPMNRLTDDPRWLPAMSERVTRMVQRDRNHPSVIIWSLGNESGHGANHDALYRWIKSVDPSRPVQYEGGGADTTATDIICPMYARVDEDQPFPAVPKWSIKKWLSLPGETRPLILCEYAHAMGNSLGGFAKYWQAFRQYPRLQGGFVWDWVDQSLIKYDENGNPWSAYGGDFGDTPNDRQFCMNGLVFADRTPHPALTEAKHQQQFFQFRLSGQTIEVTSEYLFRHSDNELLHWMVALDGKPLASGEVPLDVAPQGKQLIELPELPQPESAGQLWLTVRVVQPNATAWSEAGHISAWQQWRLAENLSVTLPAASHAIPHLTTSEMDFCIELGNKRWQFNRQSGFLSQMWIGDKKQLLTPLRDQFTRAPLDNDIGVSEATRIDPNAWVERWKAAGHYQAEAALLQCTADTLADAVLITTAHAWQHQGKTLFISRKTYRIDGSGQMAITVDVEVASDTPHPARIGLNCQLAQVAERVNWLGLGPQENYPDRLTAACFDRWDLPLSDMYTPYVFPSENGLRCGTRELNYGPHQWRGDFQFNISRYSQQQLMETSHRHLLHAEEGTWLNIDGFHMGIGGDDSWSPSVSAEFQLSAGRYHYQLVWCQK
Sequence of Sphingosine 1-phosphate receptor 1 (P21453 whole entry): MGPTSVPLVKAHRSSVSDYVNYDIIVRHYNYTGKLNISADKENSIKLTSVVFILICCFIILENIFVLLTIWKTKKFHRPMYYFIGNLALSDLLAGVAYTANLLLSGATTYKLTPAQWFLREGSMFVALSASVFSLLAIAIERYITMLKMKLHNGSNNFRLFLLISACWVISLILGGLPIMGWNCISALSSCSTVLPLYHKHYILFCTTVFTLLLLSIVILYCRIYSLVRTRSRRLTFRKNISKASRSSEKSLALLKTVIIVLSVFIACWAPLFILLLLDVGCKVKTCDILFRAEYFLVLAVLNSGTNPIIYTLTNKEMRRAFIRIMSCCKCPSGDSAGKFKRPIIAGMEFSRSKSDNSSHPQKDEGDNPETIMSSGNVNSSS
Sequence of X-box-binding protein 1 (P17861 whole entry): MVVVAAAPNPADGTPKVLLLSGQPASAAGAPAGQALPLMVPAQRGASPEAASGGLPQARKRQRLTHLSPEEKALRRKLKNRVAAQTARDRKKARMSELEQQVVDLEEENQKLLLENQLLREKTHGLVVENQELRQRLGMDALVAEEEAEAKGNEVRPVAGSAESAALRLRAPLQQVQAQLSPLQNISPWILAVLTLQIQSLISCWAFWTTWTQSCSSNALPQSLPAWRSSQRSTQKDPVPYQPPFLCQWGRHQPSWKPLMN
Sequence of DNA damage-inducible transcript 3 protein (P35639 whole entry): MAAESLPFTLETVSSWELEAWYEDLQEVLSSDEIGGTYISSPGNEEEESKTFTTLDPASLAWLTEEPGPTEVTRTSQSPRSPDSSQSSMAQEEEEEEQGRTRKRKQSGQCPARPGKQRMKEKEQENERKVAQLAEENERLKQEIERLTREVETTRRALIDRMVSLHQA

SMILES: COc1cccc(-c2nc3ccccc3c(=O)o2)c1
- IC50 [1]: > 50 µM (inconclusive)
- IC50 [2]: 6.94 µM (active)

SMILES: CC1(C)Cc2c(C#N)c(NC3CCCCC3)nc(-c3ccco3)c2CO1
- AC50 [3]: 5.72 µM (active)
- EC50 [4]: 6.98 µM (active)

SMILES: O=C(O)c1ccc(-c2ccccc2)[nH]1
- IC50 [5]: > 100 µM (inactive)
- IC50 [6]: > 100 µM (not active)

SMILES: CC(C)(C)c1csc(Sc2ccc([N+](=O)[O-])cn2)n1
- EC50 [7]: 1.75 µM (active)
- IC50 [8]: > 80 µM (inactive)
- CC50 [9]: > 40 µM (active)
- AC50 [10]: 2.54 µM (active)

SMILES: CCOc1cc2[nH]c(=S)n(CC3CCCN3CC)c(=O)c2cc1OCC (centres undefined)
- EC50 [11]: > 100 µM (inactive)

SMILES: O=C1c2cccc3c([N+](=O)[O-])ccc(c23)C(=O)N1c1ccccn1
- Absolute IC50 (XBP1) [12]: 10 µM
- Absolute IC50 (CHOP) [13]: 10 µM
- EC50 [14]: 12.8 µM (active)
- CC50 [15]: 12.3 µM (active)
- IC50 [16]: > 66.6 µM (inactive)
- IC50 [17]: 2.29 µM (active)
- EC50 [18]: 2.38 µM (active)
- AC50 [19]: 5.7 µM (active)
- IC50 [20]: 0.75 µM (active)
- IC50 [21]: 20.3 µM (active)
- EC50 [22]: 4.17 µM (active)
- CC50 [23]: 6.16 µM (active)

SMILES: Cc1ccc(OCC(=O)Nc2cc(Cl)cc(Cl)c2)c([N+](=O)[O-])n1
- EC50 [24]: 3.6 µM (active) and > 50 µM (inactive)
